Tested on: Mouse fibroblast cells (3T3)
Assay: ATP level in Rotenone-treated mouse fibroblast cells (ATPlite kit)
Type: cell-based
Settings: 0.5 μM Rotenone for 4 hours; vs control cells
Method: Mouse fibroblast cells (104, 3T3) were either not treated (control) or treated with 0.5 μM Rotenone (Rotenone, mitochondrial complex I irreversible inhibitor, CAS number 83-79-4) for 4 hours, washed, and further treated with 0.02 mg/ml mouse placental mitochondria (Rotenone+Mitochondria) for 3 hours. The cells were washed and ATP level was determined using the Perkin Elmer ATPlite kit (FIG. 2), as previously shown in WO 2016/135723.

C=C(C)[C@H]1Cc2c(ccc3c2O[C@@H]2COc4cc(OC)c(OC)cc4[C@@H]2C3=O)O1 [Rotenone]
decrease of ATP levels: about 50%

— US20240415894A1, “MITOCHONDRIAL AUGMENTATION THERAPY WITH STEM CELLS ENRICHED WITH FUNCTIONAL MITOCHONDRIA” (Minovia Therapeutics Ltd., priority 2018, published 2024)
